Source: patent publication US8106072B2, “7- (4-substituted-3-cyclopropylaminomethyl-1-pyrrolidinyl) quinolonecarboxylic acid derivative” (Kyorin Pharmaceutical Co., Ltd., priority 2003, dated 2012)
In brackets after ≈: the same amount, converted by molar mass.

Tests used:
Assay in all cases: In vitro antibacterial activity (MIC, agar plate dilution)
Format in all cases: cell-based
E. faecalis IID682 = conditions: Enterococcus faecalis, Muller-Hinton agar supplemented with 5% defibrinated horse blood
Protocol: (§1) The in-vitro antibacterial activity of the compound of the present invention, as measured by the minimum inhibitory concentration (MIC), was determined by the agar plate dilution technique using Mueller-Hinton agar medium. The technique met the criteria specified by the National Committee for Clinical Laboratory Standard (1997) [NCCLS. Methods for Dilution Antibacterial Susceptibility Tests for Bacteria that grow Aerobically—Forth Edition: Approved Standard m7-A4. NCCLS, Villanova, Pa.]. For Streptococcus pneumonia and Enterococcus, the MIC values were determined by using Muller-Hinton agar supplemented with 5% defibrinated horse blood.

S. pneumoniae Type III = conditions: Streptococcus pneumoniae, Muller-Hinton agar supplemented with 5% defibrinated horse blood
Protocol: as §1

S. aureus MR5867 = conditions: Staphylococcus aureus, S. aureus MR5867 (methicillin-resistant S. aureus), Mueller-Hinton agar
Protocol: as §1

S. aureus Smith = conditions: Staphylococcus aureus, Mueller-Hinton agar
Protocol: as §1

S. aureus MS16401 = conditions: Staphylococcus aureus, S. aureus MS16401 (quinolone-resistant S. aureus), Mueller-Hinton agar
Protocol: as §1

Structure (SMILES) | MIC (E. faecalis IID682) [µg/mL] | MIC (S. pneumoniae Type III) [µg/mL] | MIC (S. aureus MR5867) [µg/mL] | MIC (S. aureus Smith) [µg/mL] | MIC (S. aureus MS16401) [µg/mL]
COc1c(N2C[C@@H](CNC3CC3)[C@H](C)C2)ccc2c(=O)c(C(=O)O)cn(C3CC3)c12 [Example 8, 1-cyclopropyl-7-[(3R,4S)-3-cyclopropylaminomethyl-4-methyl-1-pyrrolidinyl]-1,4-dihydro-8-methoxy-4-oxo-3-quinolinecarboxylic acid] | 500 (≈ 1220 µM) | 125 (≈ 304 µM) | 31 (≈ 75.3 µM) | 31 (≈ 75.3 µM) | 63 (≈ 153 µM)
COc1c(N2C[C@H](CNC3CC3)[C@@H](C)C2)ccc2c(=O)c(C(=O)O)cn(C3CC3)c12 [Example 7, 1-cyclopropyl-7-[(3S,4R)-3-cyclopropylaminomethyl-4-methyl-1-pyrrolidinyl]-1,4-dihydro-8-methoxy-4-oxo-3-quinolinecarboxylic acid] | 250 (≈ 608 µM) | 63 (≈ 153 µM) | 63 (≈ 153 µM) | 31 (≈ 75.3 µM) | 125 (≈ 304 µM)
O=C(O)c1cn(C2CC2)c2c(OC(F)F)c(N3C[C@H](CNC4CC4)[C@H](F)C3)ccc2c1=O [Example 4, 1-cyclopropyl-7-[(3S,4S)-3-cyclopropylaminomethyl-4-fluoro-1-pyrrolidinyl]-8-difluoromethoxy-1,4-dihydro-4-oxo-3-quinolinecarboxylic acid] | 500 (≈ 1110 µM) | 63 (≈ 140 µM) | 31 (≈ 68.7 µM) | 16 (≈ 35.4 µM) | 63 (≈ 140 µM)
COc1c(N2C[C@@H](CNC3CC3)[C@H](C(F)(F)F)C2)c(F)cc2c(=O)c(C(=O)O)cn(C3CC3)c12 (relative stereo) [Example 6, 1-cyclopropyl-7-(trans-3-cyclopropylaminomethyl-4-trifluoromethyl-1-pyrrolidinyl)-6-fluoro-1,4-dihydro-8-methoxy-4-oxo-3-quinolinecarboxylic acid] | 250 (≈ 517 µM) | 63 (≈ 130 µM) | 8 (≈ 16.5 µM) | 31 (≈ 64.1 µM) | 63 (≈ 130 µM)

These reach a lower MIC (E. faecalis IID682). Values come first.

MIC (E. faecalis IID682) [µg/mL] | MIC (S. pneumoniae Type III) [µg/mL] | MIC (S. aureus MR5867) [µg/mL] | MIC (S. aureus Smith) [µg/mL] | MIC (S. aureus MS16401) [µg/mL] | Structure (SMILES)
125 (≈ 266 µM) | 16 (≈ 34.1 µM) | 8 (≈ 17 µM) | 8 (≈ 17 µM) | 8 (≈ 17 µM) | O=C(O)c1cn(C2CC2)c2c(OC(F)F)c(N3C[C@H](CNC4CC4)[C@H](F)C3)c(F)cc2c1=O [Example 3, 1-cyclopropyl-7-[(3S,4S)-3-cyclopropylaminomethyl-4-fluoro-1-pyrrolidinyl]-6-fluoro-8-difluoromethoxy-1,4-dihydro-4-oxo-3-quinolinecarboxylic acid]
125 (≈ 291 µM) | 31 (≈ 72.2 µM) | 8 (≈ 18.6 µM) | 8 (≈ 18.6 µM) | 16 (≈ 37.3 µM) | COc1c(N2C[C@@H](CNC3CC3)[C@H](C)C2)c(F)cc2c(=O)c(C(=O)O)cn(C3CC3)c12 (relative stereo) [Example 5, 1-cyclopropyl-7-(trans-3-cyclopropylaminomethyl-4-methyl-1-pyrrolidinyl)-6-fluoro-1,4-dihydro-8-methoxy-4-oxo-3-quinolinecarboxylic acid]
125 (≈ 301 µM) | 31 (≈ 74.6 µM) | 16 (≈ 38.5 µM) | 8 (≈ 19.3 µM) | 31 (≈ 74.6 µM) | COc1c(N2C[C@H](CNC3CC3)[C@H](F)C2)ccc2c(=O)c(C(=O)O)cn(C3CC3)c12 [Example 2, 1-cyclopropyl-7-[(3S,4S)-3-cyclopropylaminomethyl-4-fluoro-1-pyrrolidinyl]-1,4-dihydro-8-methoxy-4-oxo-3-quinolinecarboxylic acid]
63 (≈ 145 µM) | ≤ 8 | ≤ 8 | ≤ 8 | 16 (≈ 36.9 µM) | COc1c(N2C[C@H](CNC3CC3)[C@@H](F)C2)c(F)cc2c(=O)c(C(=O)O)cn(C3CC3)c12 [Example 9, 1-cyclopropyl-7-[(3S,4R)-3-cyclopropylaminomethyl-4-fluoro-1-pyrrolidinyl]-6-fluoro-1,4-dihydro-8-methoxy-4-oxo-3-quinolinecarboxylic acid]
63 (≈ 145 µM) | ≤ 8 | 8 (≈ 18.5 µM) | 8 (≈ 18.5 µM) | 4 (≈ 9.23 µM) | COc1c(N2C[C@H](CNC3CC3)[C@H](F)C2)c(F)cc2c(=O)c(C(=O)O)cn(C3CC3)c12 [Example 1, 1-cyclopropyl-7-[(3S,4S)-3-cyclopropylaminomethyl-4-fluoro-1-pyrrolidinyl]-6-fluoro-1,4-dihydro-8-methoxy-4-oxo-3-quinolinecarboxylic acid]
